The numbers were not newly measured in patent publication US20170274058A1, “Cancer Stem Cell-Targeted Cancer Therapy” (priority 2006, published 2017), which cites them from elsewhere.

SMILES strings stand for the structures. Structures can show the parent of a compound that is named as a salt.

This series deals with cancer stem cells, including leukemia stem cells. The conditions noted are these: background statement, references in Table 1.

Take `CC(C)C[C@H](NC(=O)[C@H](Cc1ccccc1)NC(=O)c1cnccn1)B(O)O` [Velcade®]: the “resistance of cancer stem cells to the therapy” value (“resistance of cancer stem cells” for short) is “relatively resistant”.
Consider `Nc1ccn([C@@H]2O[C@H](CO)[C@@H](O)[C@@H]2O)c(=O)n1` [Ara-C, cytarabine], for which the “resistance of cancer stem cells” value is on record as “relatively resistant”.
Turning to `Cc1ccc(NC(=O)c2ccc(CN3CCN(C)CC3)cc2)cc1Nc1nccc(-c2cccnc2)n1` [Gleevec®, imatinib mesylate], the “resistance of cancer stem cells” value is reported as “relatively resistant”.
As for `COc1cccc2c1C(=O)c1c(O)c3c(c(O)c1C2=O)C[C@@](O)(C(C)=O)C[C@@H]3O[C@H]1C[C@H](N)[C@H](O)[C@H](C)O1` [daunorubicin], the “resistance of cancer stem cells” value is “relatively resistant”.
